Measurements published in ChEMBL document CHEMBL3243934, “Synthesis and antiinflammatory activity of cis-4,5,6,7,8,8a,9-hexahydro-alpha-methyl-5H-fluorene-2-acetic acid” (1977).

Legend:
Rattus norvegicus = experiment: Antiinflammatory activity in rat assessed as inhibition of carrageenan-induced paw edema at 150 mg/kg; type: functional
Oryctolagus cuniculus = experiment: Antiinflammatory activity in rabbit assessed as inhibition of edema at 200 ug per site by reversed passive arthus test; type: functional

Compound | inhibition in vivo at 150 mg/kg (Rattus norvegicus) [%] | inhibition (INH) (Oryctolagus cuniculus) [%]
CC(C(=O)O)c1ccc2c(c1)C[C@H]1CCCC[C@@H]21 (stereo not given in full) | 63 | 55
CCCCC1C(=O)N(c2ccccc2)N(c2ccccc2)C1=O [PHENYLBUTAZONE] | 59 | 44
CC(C(=O)O)c1ccc2c(c1)Cc1ccccc1-2 (stereo not given) [CICLOPROFEN] | 66 | 36
COc1ccc2c(c1)c(CC(=O)O)c(C)n2C(=O)c1ccc(Cl)cc1 [INDOMETHACIN] |  | 57
COc1ccc2cc([C@H](C)C(=O)O)ccc2c1 [NAPROXEN] |  | 55
CC(C)Cc1ccc(C(C)C(=O)O)cc1 (stereo not given) [IBUPROFEN] | 56 | 54
